# Results published in US20230087844A1, “USE OF N2-QUINCLINE OR ISOQUINOLINE SUBSTITUTED PURINE DERIVATIVES IN CANCER TREATMENT” (SHANGHAI HUAYU BIOTECHNOLOGY CO., LTD., priority 2020, published 2023).
# Marks after values point to notes of the source that are not given here.
# Assays:
# [1] = tested on: Ls-174t human colon cancer cells; experiment: Ls-174t colon cancer xenograft in mice; assay type: in vivo, BALB/cA-nude mice; settings: 153 mg/kg I.P., D0-4, 7-11
# Excerpt: Mice were sacrificed on Day-14.
# [2] = tested on: S180 murine sarcoma cancer cells; experiment: S180 sarcoma growth in mice; settings: 30 mg/kg I.P., D1-7
# Method: On Day 8, the mice were weighed and sacrificed, and the tumors were collected and weighed.
# Tumor growth inhibition (TGI) was calculated by the following formula. Tumor growth inhibition=(average tumor weight in vehicle group-average tumor weight in administration group)/average tumor weight in vehicle group×100%
# [3] = tested on: Colon26 murine colon cancer cells; experiment: Colon26 colon cancer growth in mice; assay type: in vivo, F1 mice; settings: for TGI / Tumor weight: Day 8
# Method: F1 mice, 18-22 g, purchased from Shanghai Bi-Kai Laboratory Animal Co., Ltd, were subcutaneously inoculated with Colon26 murine colon cancer cells (from Cell Bank, Chinese Academy of Sciences) at the right axilla. […] Tumor growth inhibition (TGI) was calculated.
# MV-4-11 cells [4] = experiment: MV-4-11 AML xenograft in mice, combination with daunorubicin (Example 8); assay type: in vivo, BALB-cA nude mice; settings: 2 mg/kg I.V., D0-10
# Method: Mice body weights and tumor sizes were measured twice a week. The tumor volume, T/C and TGI (Tumor growth inhibition=(average tumor volume in vehicle group-average tumor volume in administration group)/average tumor volume in vehicle group ×100%) were calculated. Mice were sacrificed on Day 21. Female BALB-cA nude mice, 6-7 weeks old, purchased from Shanghai Ling-chang Biotech Co., Ltd, were subcutaneously inoculated with MV-4-11 cells (from ATCC). […] Mice body weights and tumor sizes were measured twice a week. The tumor volume, T/C and tumor volume based TGI were calculated as described above. Mice were sacrificed on Day 11.
# H69 = experiment: Tumor cell death by MTT, H69; assay type: cell-based, human; settings: 10 μM
# Method: (§1) The in vitro inhibitory effect of Compound A alone or in combination with a PARP inhibitor on tumor cell growth was tested using human small cell lung cancer (SCLC) cell lines, including H69 (ATCC® HTB-119™), H526 (ATCC® CRL-5811™) and H446 (TCHu196, National Collection of Authenticated Cell Cultures).
# (§2) Briefly, the cells were seeded into a 96-well dish with RPMI-1640 (10-040-CV, Coming cellgro) containing 10% fetal bovine serum (10270-106, GIBCO), 1% penicillin and 1% streptomycin (BaSalMedia, S110JV), at an initial density of 3×10^3 cells per well ([…]), and cultured at a 37° C., 5% CO2 humidified incubator for 24 hours. Then, the culture media were added with Compound A (final concentration at 20 nM), olaparib (APEXBIO, A4154, a PARP inhibitor, final concentration at 10 μM), Compound A + olaparib (final concentrations at20 nM and 10 μM), or PBS (vehicle), respectively, and the cells were cultured for 48 hours. Then, cell viability was determined by MTT. The test was done in triplicate.
# (§3) Cell death rate was calculated by the following formula.
# (§4) Cell death rate=[1−(ODtest-ODvehicle)]×100%
# (§5) Cell death rates were analyzed using student's t-test, and group differences were deemed statistically significant when the p-value was lower than 0.05. Zheng-Jun Jin's Q value was calculated using the formula Q=EA+B/(EA+EB-EA×EB) to assess the combined effect of Compound A and the PARP inhibitor, wherein EA+B, EA, and EB referred to the cell death rates caused by the combined treatment, Compound A treatment and PARP inhibitor treatment, respectively. A Q value higher than 1.15 meant a synergistic […] effect.
# (§6) Another PARP inhibitor, rucaparib (APEXBIO, A4156), was tested alone or with Compound A for inhibitory effect on tumor cell growth, following the protocol of Example 9.
# H526 = experiment: Tumor cell death by MTT, H526; assay type: cell-based, human; settings: 10 μM
# Method: as §1, §2, §3, §4, §5, §6
# H446 = experiment: Tumor cell death by MTT, H446; assay type: cell-based, human; settings: 10 μM
# Method: as §1, §2, §3, §4, §5, §6
# [5] = tested on: SGC-7901 human gastric cancer cells; experiment: SGC-7901 gastric cancer xenograft in mice; settings: 5 mg/kg I.P., D0, 6
# Method: Mice body weights and tumor sizes were measured 2 to 3 times a week. The tumor volume (V) was calculated as (length× width^2)/2. T/C (%) was calculated as (T-T0)/(C-C0)×100, wherein T and C represented the tumor volumes in the administration group and the vehicle group respectively at the end of the experiment, while T0 and C0 represented the tumor volumes in the administration group and the vehicle group respectively at the beginning of the experiment. And RTV was calculated as (Tumor volume at Day N/Tumor volume at Day 0).
# BALB/cA-nude mice, 5-6 weeks old, purchased from Shanghai SLAC Laboratory Animal Co., Ltd, were subcutaneously inoculated with SGC-7901 human gastric cancer cells (from Cell Bank, Chinese Academy of Sciences).
# (§7) Mice body weights and tumor sizes were measured 2 to 3 times a week. The tumor volume, T/C and RTV were calculated as described above. Mice were sacrificed on Day 18.
# [6] = tested on: A549 human non-small cell lung cancer cells; experiment: A549 non-small cell lung cancer xenograft in mice; settings: 5 mg/kg I.P., D0, 3
# Method: Mice body weights and tumor sizes were measured 2 to 3 times a week. The tumor volume (V) was calculated as (length× width^2)/2. T/C (%) was calculated as (T-T0)/(C-C0)×100, wherein T and C represented the tumor volumes in the administration group and the vehicle group respectively at the end of the experiment, while T0 and C0 represented the tumor volumes in the administration group and the vehicle group respectively at the beginning of the experiment. And RTV was calculated as (Tumor volume at Day N/Tumor volume at Day 0). Mice were sacrificed on Day-14.
# BALB/cA-nude mice, 5-6 weeks old, purchased from Shanghai SLAC Laboratory Animal Co., Ltd, were subcutaneously inoculated with A549 human non-small cell lung cancer cells (from ATCC).
# as §7
# MV-4-11 cells [7] = experiment: MV-4-11 AML xenograft in mice (Example 7); assay type: in vivo, BALB-cA nude mice; settings: D0-20; for Complete remission: number of mice, N 6
# Method: Mice body weights and tumor sizes were measured twice a week. The tumor volume, T/C and TGI (Tumor growth inhibition=(average tumor volume in vehicle group-average tumor volume in administration group)/average tumor volume in vehicle group ×100%) were calculated. Mice were sacrificed on Day 21.
compound,measurement,setting,value
"Nc1nc2[nH]cc(CCc3ccc(C(=O)N[C@@H](CCC(=O)O)C(=O)O)cc3)c2c(=O)[nH]1 [Pemetrexed disodium, pemetrexed disodium, reference compound]",Body weight (without tumor) D0,[1],24.0 g
same,Body weight (without tumor) D14,[1],15.3 g
same,RTV at D14,[1],9.14 ± 2.86
same,Tumor volume D0,[1],138 ± 33 mm^3
same,Tumor volume D14,[1],1209 ± 244 mm^3
same,T/C,[1]; D14,43.3* %
"O=P1(N(CCCl)CCCl)NCCCO1 (stereo not drawn) [CTX, cyclophosphamide, reference compound]",Body weight (without tumor) D1,[2],21.8 g
same,Body weight (without tumor) D8,[2],26.8 g
same,Tumor weight on Day 8,[2],0.60 ± 0.18 g
same,TGI,"[2]; tumor weight, Day 8",68.8* %
same,Body weight (without tumor) at D8,"[3]; 30 mg/kg I.V., D1-7",21.22 g
same,TGI,"[3]; 30 mg/kg I.V., D1-7",79.00%
same,Tumor weight,"[3]; 30 mg/kg I.V., D1-7",0.43 g
"Nc1ccn([C@@H]2O[C@H](CO)[C@@H](O)C2(F)F)c(=O)n1 [Gemcitabine, gemcitabine]",Body weight (without tumor) at D8,"[3]; 10 mg/kg I.V., D1",22.31 g
same,TGI,"[3]; 10 mg/kg I.V., D1",57.51%
same,Tumor weight,"[3]; 10 mg/kg I.V., D1",0.86 g
same,Body weight (without tumor) at D8,"[3]; 20 mg/kg IV, D1",22.35 g
same,TGI,"[3]; 20 mg/kg IV, D1",81.53%
same,Tumor weight,"[3]; 20 mg/kg IV, D1",0.38 g
"COc1cccc2c1C(=O)c1c(O)c3c(c(O)c1C2=O)C[C@@](O)(C(C)=O)C[C@@H]3O[C@H]1C[C@H](N)[C@H](O)[C@H](C)O1 [Daunorubicin, daunorubicin, reference compound]",T/C,MV-4-11 cells [4]; D11,38%
same,TGI,MV-4-11 cells [4]; D11,62%
same,Tumor volume D0,MV-4-11 cells [4]; in mm³,152.9
same,Tumor volume D11,MV-4-11 cells [4]; in mm³,1167.3
"CNCc1ccc(-c2[nH]c3cc(F)cc4c3c2CCNC4=O)cc1 [Rucaparib, rucaparib, reference compound]",Cell Death Rate/% 1,"H69; Example 10, Table 11",7.51%
same,Cell Death Rate/% 2,"H69; Example 10, Table 11",7.3%
same,Cell Death Rate/% 3,"H69; Example 10, Table 11",8.11%
same,Cell Death Rate/% mean,"H69; Example 10, Table 11",7.64%
same,Cell Death Rate/% 1,"H526; Example 10, Table 11",6.73%
same,Cell Death Rate/% 2,"H526; Example 10, Table 11",6.57%
same,Cell Death Rate/% 3,"H526; Example 10, Table 11",6.19%
same,Cell Death Rate/% mean,"H526; Example 10, Table 11",6.50%
same,Cell Death Rate/% 1,"H446; Example 10, Table 11",14%
same,Cell Death Rate/% 2,"H446; Example 10, Table 11",13.79%
same,Cell Death Rate/% 3,"H446; Example 10, Table 11",14.48%
same,Cell Death Rate/% mean,"H446; Example 10, Table 11",14.09%
"O=C(c1cc(Cc2n[nH]c(=O)c3ccccc23)ccc1F)N1CCN(C(=O)C2CC2)CC1 [Olaparib, olaparib, reference compound]",Cell Death Rate/% 1,"H69; 48 hours, Table 10",6%
same,Cell Death Rate/% 2,"H69; 48 hours, Table 10",6.25%
same,Cell Death Rate/% 3,"H69; 48 hours, Table 10",6.54%
same,Cell Death Rate/% mean,"H69; 48 hours, Table 10",6.26%
same,Cell Death Rate/% 1,"H526; 48 hours, Table 10",5.25%
same,Cell Death Rate/% 2,"H526; 48 hours, Table 10",4.92%
same,Cell Death Rate/% 3,"H526; 48 hours, Table 10",5.13%
same,Cell Death Rate/% mean,"H526; 48 hours, Table 10",5.10%
same,Cell Death Rate/% 1,"H446; 48 hours, Table 10",12.01%
same,Cell Death Rate/% 2,"H446; 48 hours, Table 10",12.55%
same,Cell Death Rate/% 3,"H446; 48 hours, Table 10",12.24%
same,Cell Death Rate/% mean,"H446; 48 hours, Table 10",12.27%
"N.N.[Cl][Pt][Cl] [Cisplatin, cisplatin, reference compound]",Body weight (with tumor) D0,[5],18.4 g
same,Body weight (with tumor) D18,[5],16.0 g
same,RTV at D18,[5],2.85 ± 1.52
same,Tumor volume D0,[5],127 ± 24 mm^3
same,Tumor volume D18,[5],366 ± 201 mm^3
same,T/C,[5]; D18,34.9* %
same,Body weight (with tumor) D0,[6],16.7 g
same,Body weight (with tumor) D18,[6],15.3 g
same,RTV at D18,[6],8.89 ± 5.39
same,Tumor volume D0,[6],110 ± 12 mm^3
same,Tumor volume D18,[6],944 ± 536 mm^3
same,T/C,[6]; D18,33.7* %
"CC[C@H](Nc1ncnc2[nH]cnc12)c1nc2cccc(F)c2c(=O)n1-c1ccccc1 [CAL 101, reference compound]",T/C (%) D21,MV-4-11 cells [7]; 90 mg/kg P.O.,50%
same,TGI (%) D21,MV-4-11 cells [7]; 90 mg/kg P.O.,50%
same,Tumor volume D0,MV-4-11 cells [7]; 90 mg/kg P.O.,79.6 ± 3.1 mm^3
same,Tumor volume D21,MV-4-11 cells [7]; 90 mg/kg P.O.,442.2 ± 93.8 mm^3
same,Complete remission,MV-4-11 cells [7]; 90 mg/kg P.O.,0
same,T/C (%) D21,MV-4-11 cells [7]; 180 mg/kg P.O.,39%
same,TGI (%) D21,MV-4-11 cells [7]; 180 mg/kg P.O.,61%
same,Tumor volume D0,MV-4-11 cells [7]; 180 mg/kg P.O.,78.9 ± 1.9 mm^3
same,Tumor volume D21,MV-4-11 cells [7]; 180 mg/kg P.O.,361.7 ± 93.8 mm^3
same,Complete remission,MV-4-11 cells [7]; 180 mg/kg P.O.,0
